In US20120308673A1, “COMPOSITION COMPRISING THE EXTRACT OF PRUNELLA VULGARIS L. FOR PREVENTING AND TREATING ADHD DISEASE AND THE USE THEREOF” (priority 2009, published 2012):

Assays:
SHR animal model [1] = assay: Effect on hyperactivity of SHR animal model (total movement distance and duration in test box); type: in vivo, rat; settings: 3 mg/kg intraperitoneally, 30 mins after treatment, recorded for 10 mins
Experimental: To test the inhibitory effect of the extract of […] prepared in Example 1 on the hyperactivity of SHR animals, following test was performed according to the procedure disclosed in the literature (Kong, W. X et al., Effect on taurine on rat behaviors in three anxiety models, (2006), Pharmacology Biochem., Behavior 83:271-276; Arulmozhi D. K. et al, Pharmacological studies of the aqueous extract of Sapindus trifoliatus on central nervous system: possible ant-migraine mechanism, J. Ethnophamacol., 97:491-496).
The rats were acclimated with the environment for 1 week and with apparatus more than once for 10 mins prior to test. PV70E and PVW prepared in Example 1 used as test groups as well as methylphenidate (Johnson Mattey Public Limited Co.) used as a positive control were intraperitoneally administered into mice in a dose of 3 mg/kg.
30 mins after the treatment with test samples, the SHR mice, i.e., ADHD animal models, and normal mice used as negative control were placed on the test box to examine the movement of mice and to determine the total movement distance and total movement duration of the mice for 10 mins using by analysis apparatus (EthoVision system; Noldus IT b.v., Netherland).

SHR animal model [2] = assay: Effect on alternation behavior of SHR animal model (modified Y-maze test); type: in vivo, rat; settings: 8 min period, dose dependent, p<0.05, FIG. 3
Experimental: To test the inhibitory effect of the extract of […] prepared in Example 1 on the alternation behavior of SHR animals, following modified Y-maze test was performed according to the procedure disclosed in the literature (Sarter M., et al., Attenuation of scopolamine-induced impairment of spontaneous alternation by antagonist but not agonist and agonist beta-carbolines, (1988), Psychopharmacology (Berl). 94:491-495; Kim D. H. et al, Gomisin A improves scopolamine-induced memory impairment in mice, (2006), Eur. J. Pharmacol., 542:129-235).
The Y-maze test was conducted in a three-arm maze with angles of 120° between the arms designates as A, B and C respectively, which were 42 cm long and 3 cm wide with walls that were 12 cm high each. The maze floor and walls were constructed from dark opaque polyvinyl plastic. Mice were initially placed within one arm and the sequence and number of arm entries were recorded manually for each mouse over an 8 min period. The percentage of triads in which all the arms were represented, i.e., ABC, CAB or BCA but not BAB, was recorded as an ‘alternation’ to estimate short-term memory. Control group animals received 0.9% saline solution and scopolamine (1 mg/kg, i.p.) or vehicle was introduced to induce memory impairment 30 mins before the test. […] The alternation score (%) for each mouse was calculated according to following math formula 1: […]

COC(=O)C(c1ccccc1)C1CCCCN1 (stereo not drawn) [methylphenidate]
general movement of SHR (total movement distance and rearing number) (SHR animal model [1]; SHR, FIGS. 1 and 2): did not affect | movement of normal mice (SHR animal model [1]; normal mice): increased the movement | alternation behavior of SHR (SHR animal model [2]): inhibiting effect
